Assay results reported in publication PMC10460054, “Multiplex Quantitative Analysis of 9 Compounds of Scutellaria baicalensis Georgi in the Plasma of Respiratory Syncytial Virus-Infected Mice Based on HPLC-MS/MS and Pharmacodynamic Effect Correlation Analysis” (Molecules, 2023).

Experiments:
[1] = HPLC-MS/MS quantification of 9 compounds in plasma of RSV-infected mice after Scutellaria baicalensis Georgi administration; format: in vivo, BALB/c mice; design: drug-containing plasma content: unit not given here; details: for time of highest plasma concentration, first peak / time of highest plasma concentration, second peak: RSV-infected mice after Scutellaria baicalensis Georgi administration, double peak phenomenon
Description: The study employed a Vanquish high-performance liquid chromatograph for chromatographic separation, with a HALO C18 column (2.1 × 100 mm, 2.7 μm) as the chromatographic column.
Mass spectrometry was performed using a quadrupole-electrostatic field orbitrap desktop mass spectrometer equipped with an electrospray ion source (ESI). The ESI parameters were set as follows: the pyrolysis voltage was 3.0 kV, the auxiliary gas flow rate was 10 mL/min, the ion transport tube temperature was 350 °C, the auxiliary gas temperature was 350 °C, and the sheath gas flow rate was 45 L/min. Quantitative analysis was performed using the selective ion detection (SIM) mode (Table S1).
Male BALB/c mice, aged 2 weeks and weighing 10–12 g, were chosen for this study. They were acclimatized for 2 days and then randomly assigned to one of five groups: blank (C), model (M), positive control ribavirin (Y1), positive control lianhua qingwen granules (Y2), and Scutellaria baicalensis Georgi administration (H1-H12). Each group consisted of six mice, and their weights were recorded. The mice were pre-administered for 2 days, and on the third day, RSV virus (TCID50 = 10^−6) was inoculated through intranasal infection at a volume of 35 μL per mouse. The blank group was inoculated with normal saline of the same volume. After the inoculation of the RSV virus, the blank and model groups were given distilled water by gavage, while the drug-administered groups were given an aqueous extract of Scutellaria baicalensis Georgi (10 µL/g) once a day for 3 days. The mice were observed daily for their mental status, hair color, diet, and body weight. […] It was then centrifuged at 3000 r/min for 10 min, and the upper layer of plasma was stored at −80℃. Lung tissues were weighed, the lung index was calculated, and the lung tissues were stored in the refrigerator at −80 °C for freezing.
The plasma sample (200 μL) was processed in a 5 mL tube. Subsequently, 10 μL of 5% formic acid and 20 μL of 2 mol/L hydrochloric acid were added, followed by vortexing for 1 min with 10 μL of internal standard solution (100 ng/mL tinidazole). The extraction was completed by adding 2000 μL of acetonitrile solvent and vortexing for 2 min. The mixture was then centrifuged at 12,000 r/min at 4 °C for 10 min, and the supernatant solution was collected in a new centrifuge tube. The supernatant solution was dried by nitrogen at room temperature before being redissolved in 50 μL of 70% acetonitrile solution containing 0.1% formic acid. After vortexing for 1 min, the solution was centrifuged at 12,000 r/min at 4 °C for 10 min, and the resulting supernatant was injected for analysis. The injection volume was 3 μL.
The drug-containing plasma at different time points was subjected to sample treatment. The HPLC-MS/MS analysis method was used to quantitatively detect the 9 compounds in the ion detection (SIM) mode. According to the relative peak area value = index peak area/internal standard peak area, the corresponding concentration value was calculated by substituting the standard curve of each component.

[2] = Stability of 9 compounds in mouse plasma under storage conditions; format: in vitro ADME; details: n = 6; for Stability 3-Freeze-Thaw Cycles RE: 3 times repeated freeze-thaw at −80 °C; for Stability Short-Term RE: 12 h at 4 °C; for Stability Long-Term RE: −20 °C for 20 days
[3] = RSV-infected mice, 0.083 h after last gavage of Scutellaria baicalensis Georgi extract, mean ± SD, n = 6
[4] = RSV-infected mice, 0.167 h after last gavage of Scutellaria baicalensis Georgi extract, mean ± SD, n = 6
[5] = RSV-infected mice, 0.25 h after last gavage of Scutellaria baicalensis Georgi extract, mean ± SD, n = 6
[6] = RSV-infected mice, 0.5 h after last gavage of Scutellaria baicalensis Georgi extract, mean ± SD, n = 6
[7] = RSV-infected mice, 1 h after last gavage of Scutellaria baicalensis Georgi extract, mean ± SD, n = 6
[8] = RSV-infected mice, 2 h after last gavage of Scutellaria baicalensis Georgi extract, mean ± SD, n = 6
[9] = RSV-infected mice, 4 h after last gavage of Scutellaria baicalensis Georgi extract, mean ± SD, n = 6
[10] = RSV-infected mice, 6 h after last gavage of Scutellaria baicalensis Georgi extract, mean ± SD, n = 6
[11] = RSV-infected mice, 8 h after last gavage of Scutellaria baicalensis Georgi extract, mean ± SD, n = 6
[12] = RSV-infected mice, 10 h after last gavage of Scutellaria baicalensis Georgi extract, mean ± SD, n = 6
[13] = RSV-infected mice, 12 h after last gavage of Scutellaria baicalensis Georgi extract, mean ± SD, n = 6
[14] = RSV-infected mice, 24 h after last gavage of Scutellaria baicalensis Georgi extract, mean ± SD, n = 6
[15] = high QC (20,000 or 10,000 ng/mL)
[16] = male, BALB/c, mouse, in vivo, 0.083 h
[17] = male, BALB/c, mouse, in vivo, 0.167 h
[18] = male, BALB/c, mouse, in vivo, 0.25 h
[19] = male, BALB/c, mouse, in vivo, 0.5 h
[20] = male, BALB/c, mouse, in vivo, 1 h
[21] = male, BALB/c, mouse, in vivo, 2 h
[22] = male, BALB/c, mouse, in vivo, 4 h
[23] = male, BALB/c, mouse, in vivo, 6 h
[24] = male, BALB/c, mouse, in vivo, 8 h
[25] = male, BALB/c, mouse, in vivo, 10 h
[26] = male, BALB/c, mouse, in vivo, 12 h
[27] = male, BALB/c, mouse, in vivo, 24 h

Row | time of highest plasma concentration, first peak [1] | time of highest plasma concentration, second peak [1] | Compound | drug-containing plasma content [1, 3] | drug-containing plasma content [1, 4] | drug-containing plasma content [1, 5] | drug-containing plasma content [1, 6] | drug-containing plasma content [1, 7] | drug-containing plasma content [1, 8] | drug-containing plasma content [1, 9] | drug-containing plasma content [1, 10] | drug-containing plasma content [1, 11] | Stability 3-Freeze-Thaw Cycles RE [2, 15] | Stability 3-Freeze-Thaw Cycles RE ([2]; low QC (12.5 or 25.6 ng/mL)) | Stability 3-Freeze-Thaw Cycles RE ([2]; medium QC (320 or 160 ng/mL)) | Stability Short-Term RE [2, 15] | Stability Short-Term RE ([2]; low QC (12.5 or 25.6 ng/mL)) | Stability Short-Term RE ([2]; medium QC (320 or 160 ng/mL)) | Stability Long-Term RE [2, 15] | Stability Long-Term RE ([2]; low QC (12.5 or 25.6 ng/mL)) | Stability Long-Term RE ([2]; medium QC (320 or 160 ng/mL)) | further results
1 | 0.167 h | 6 h | COc1c(OC2OC(C(=O)O)C(O)C(O)C2O)cc2oc(-c3ccccc3)cc(=O)c2c1O [Oroxylin A 7-O-beta-D-glucuronide] | 462.93± 10.74 | 603.78± 13.98 | 143.83± 6.73 | 315.26± 12.78 | 138.74± 3.62 | 315.26± 12.78 | 412.32± 18.42 | 1008.71± 54.19 | 286.84± 8.27 | −0.56% | 6.23% | 3.08% | −0.23% | 7.34% | 1.89% | 0.55% | 7.73% | 2.21% | drug-containing plasma content [1, 12]: 160.51± 5.17; drug-containing plasma content [1, 13]: 29.40± 0.71; drug-containing plasma content [1, 14]: 0
2 |  |  | O=c1cc(-c2ccccc2)oc2cc(O)cc(O)c12 [Chrysin] | 0 | 0 | 0 | 10.37± 2.12 | 15.38± 4.94 | 21.43± 4.86 | 12.37± 2.12 | 60.64± 2.86 | 0 | −2.47% | −6.42% | −5.15% | −2.74% | −5.59% | −10.49% | −3.86% | −4.52% | −9.37% | drug-containing plasma content [1, 12]: 0; drug-containing plasma content [1, 13]: 0; drug-containing plasma content [1, 14]: 0
3 | 0.167 h | 6 h | O=c1cc(-c2ccccc2)oc2c(O)c(O)cc(O)c12 [Norwogonin] | 28.17± 2.96 | 94.18± 5.68 | 23.48± 0.05 | 13.88± 4.73 | 12.42± 7.14 | 0 | 14.29± 9.94 | 113.88± 4.73 | 21.94± 0.43 | 1.97% | −6.11% | 7.06% | −1.39% | −2.17% | 0.74% | 0.11% | −8.96% | 3.74% | drug-containing plasma content [1, 12]: 16.07± 3.80; drug-containing plasma content [1, 13]: 0; drug-containing plasma content [1, 14]: 0
4 | 0.167 h | 6 h | O=c1cc(-c2ccccc2)oc2cc(O)c(O)c(O)c12 [Baicalein] |  |  |  |  |  |  |  |  |  |  |  |  |  |  |  |  |  |  | drug-containing plasma content [1, 16]: 235.76± 21.97; drug-containing plasma content [1, 17]: 573.93± 23.68; drug-containing plasma content [1, 18]: 437.59± 15.17; drug-containing plasma content [1, 19]: 243.84± 16.32; drug-containing plasma content [1, 20]: 208.98± 14.58; drug-containing plasma content [1, 21]: 25.73± 5.59; drug-containing plasma content [1, 22]: 43.00± 8.66; drug-containing plasma content [1, 23]: 792.15± 41.3; drug-containing plasma content [1, 24]: 184.80± 29.24; drug-containing plasma content [1, 25]: 120.93± 15.03; drug-containing plasma content [1, 26]: 9.28± 5.01; drug-containing plasma content [1, 27]: 1.42± 5.86

Row | Compound | time of highest plasma concentration, first peak [1] | time of highest plasma concentration, second peak [1] | drug-containing plasma content [1, 3] | drug-containing plasma content [1, 4] | drug-containing plasma content [1, 5] | drug-containing plasma content [1, 6] | drug-containing plasma content [1, 7] | drug-containing plasma content [1, 8] | drug-containing plasma content [1, 9] | drug-containing plasma content [1, 10] | drug-containing plasma content [1, 11] | Stability 3-Freeze-Thaw Cycles RE [2, 15] | Stability 3-Freeze-Thaw Cycles RE ([2]; low QC (12.5 or 25.6 ng/mL)) | Stability 3-Freeze-Thaw Cycles RE ([2]; medium QC (320 or 160 ng/mL)) | Stability Short-Term RE [2, 15] | Stability Short-Term RE ([2]; low QC (12.5 or 25.6 ng/mL)) | Stability Short-Term RE ([2]; medium QC (320 or 160 ng/mL)) | Stability Long-Term RE [2, 15] | Stability Long-Term RE ([2]; low QC (12.5 or 25.6 ng/mL)) | Stability Long-Term RE ([2]; medium QC (320 or 160 ng/mL)) | further results
5 | COc1c(O)cc2oc(-c3ccccc3)cc(=O)c2c1O [Oroxylin A] | 0.167 h | 6 h | 13.47± 9.43 | 745.77± 35.54 | 63.52± 1.32 | 40.44± 4.81 | 160.88± 15.86 | 75.84± 5.43 | 486.23± 8.65 | 1063.52± 101.32 | 300.68± 17.25 | −5.29% | −4.26% | −8.41% | −4.07% | −3.30% | −5.14% | −7.03% | −6.71% | −5.78% | drug-containing plasma content [1, 12]: 19.18± 2.56; drug-containing plasma content [1, 13]: 13.60± 7.94; drug-containing plasma content [1, 14]: 0
6 | O=C(O)[C@H]1O[C@@H](Oc2cc3oc(-c4ccccc4)cc(=O)c3c(O)c2O)[C@H](O)[C@@H](O)[C@@H]1O [Baicalin] | 0.167 h | 6 h |  |  |  |  |  |  |  |  |  | 7.69% | −7.38% | −2.37% | 5.73% | −9.16% | −5.85% | 5.87% | −8.15% | −5.21% | drug-containing plasma content [1, 16]: 2434.28± 151.56; drug-containing plasma content [1, 17]: 4607.45± 318.09; drug-containing plasma content [1, 18]: 2031.56± 103.57; drug-containing plasma content [1, 19]: 2696.64± 110.33; drug-containing plasma content [1, 20]: 2474.37± 225.92; drug-containing plasma content [1, 21]: 2620.76± 117.82; drug-containing plasma content [1, 22]: 1587.10± 169.68; drug-containing plasma content [1, 23]: 8607.45± 428.09; drug-containing plasma content [1, 24]: 1856.98± 113.03; drug-containing plasma content [1, 25]: 569.32± 20.22; drug-containing plasma content [1, 26]: 39.89± 7.45; drug-containing plasma content [1, 27]: 15.44± 5.62
